# Values quoted from earlier work in patent EP0438554B1, “NITROGENOUS AMBRUTICINES, PROCESS FOR OBTAINING THEM AND THEIR USE” (Gesellschaft für Biotechnologische Forschung mbH (GBF), priority 1989, dated 1991).
# Details: in vitro; S.M. Ringel et al., J. of Antibiotics 30, 371 (1977)
structure (smiles),measurement,value
CC[C@H]1O[C@@H](/C(C)=C/[C@H](C)/C=C/[C@H]2[C@@H](C)[C@@H]2/C=C/[C@@H]2O[C@H](CC(=O)O)C[C@H](O)[C@H]2O)CC=C1C [Ambruticin],antibakterielle Wirkung,schwach antibakterielle
